# Reference: article PMC8391421, “Identification of Novel Positive Allosteric Modulators of Neurotrophin Receptors for the Treatment of Cognitive Dysfunction” (Cells, 2021)
# Experiments:
# Wistar rats = test: Novel object recognition; type: in vivo, rat; settings: 1 mg/kg
# Method: The novel object recognition model was conducted by Suven Life Sciences Ltd. (Hyderabad, India) using male Wistar rats (n = 12/group). This study was performed in compliance with the requirements and in-house animal care and usage policy of the Institutional Animal Ethics Committee (IAEC). The experiment was conducted over a 5-day period. For the first 3 days, ACD855 or vehicle were administered to the animals. On Day 4, the rats were acclimatized to their respective arenas for 20 min and then returned to their home cages for the administration of ACD855 or vehicle (1 h post habituation phase). On Day 5, the rats were administered vehicle or ACD855 1 h prior to trial, donepezil (1 mg/kg) was injected 30 min prior to trial, and scopolamine (1 mg/kg) was injected 20 min prior to trial. 20 min after scopolamine administration, the rats were subjected to the familiarization phase. The experiment was performed as described by Lueptow. The discriminative index for the drug-treated groups was compared to that of the vehicle group by use of the Kruskal–Wallis test. The discriminative index is the ratio of time spent exploring the novel object divided by the sum of the time spent exploring the novel object and a familiar object in the choice trial.
# full-length TrkA-HA = molecular target: T1, full-length TrkA-HA (Homo sapiens, UniProt P04629); test: Kinase activity assay of immunoprecipitated HA-tagged full length TrkA (LANCE TR-FRET); type: biochemical; settings: 5 µM compound, increasing ATP, vs DMSO
# T1 construct: Full-length TrkA with a HA-tag (TrkA-HA) fused to the C-terminus; A6 used the anti-HA immunoprecipitate and A14 the 12,000 x g lysate supernatant
# T1 sequence (P04629 33-796): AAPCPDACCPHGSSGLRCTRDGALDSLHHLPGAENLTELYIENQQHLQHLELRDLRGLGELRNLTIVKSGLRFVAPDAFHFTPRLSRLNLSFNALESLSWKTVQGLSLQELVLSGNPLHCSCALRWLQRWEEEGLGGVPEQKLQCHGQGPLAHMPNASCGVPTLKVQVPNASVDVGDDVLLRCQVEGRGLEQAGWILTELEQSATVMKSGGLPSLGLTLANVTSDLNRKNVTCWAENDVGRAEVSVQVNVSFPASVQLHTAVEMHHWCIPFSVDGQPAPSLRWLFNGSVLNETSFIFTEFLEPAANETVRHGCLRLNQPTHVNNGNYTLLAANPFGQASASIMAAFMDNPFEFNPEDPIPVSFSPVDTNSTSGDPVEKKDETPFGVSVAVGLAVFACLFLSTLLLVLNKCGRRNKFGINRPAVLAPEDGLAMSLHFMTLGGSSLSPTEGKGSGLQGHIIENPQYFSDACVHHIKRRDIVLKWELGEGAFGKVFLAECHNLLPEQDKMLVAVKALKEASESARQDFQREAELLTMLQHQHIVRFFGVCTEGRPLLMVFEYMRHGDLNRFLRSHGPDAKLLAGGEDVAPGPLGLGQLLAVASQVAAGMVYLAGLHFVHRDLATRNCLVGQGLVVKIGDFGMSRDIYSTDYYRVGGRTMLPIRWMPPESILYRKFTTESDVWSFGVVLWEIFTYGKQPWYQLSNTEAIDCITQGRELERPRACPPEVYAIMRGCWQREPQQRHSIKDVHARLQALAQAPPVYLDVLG
# Method: A cDNA expression plasmid (pCMV3) with C-terminal-HA tagged human NTRK1 cDNA subcloned between the HindIII and XbaI sites was obtained from SinoBiological (NordicBiosite, Sweden). The human neuroblastoma cell line SH-SY5Y (ATCC, LGC Standards GmbH, Wesel, Germany) was transfected with lipofectamine 3000 and 2 µg of the plasmid. Hygromycin was used for the selection, and expansion of the TrkA-positive clones were performed using 200 µg/mL of Hygromycin. A clone with stable TrkA–HA expression was used for protein expression. Briefly, SH-SY5Y-TrkA-HA cells were seeded in T175cm2 flasks and grown until confluency. A total of 10 flasks were used for each experiment. Cells were detached using Accutase and washed twice with Dulbecco’s PBS through centrifugation. The final cell pellet was resuspended in 2 mL lysis buffer (FNN0011, Thermo Fisher Scientific, Gothenburg, Sweden) supplemented with protease and phosphatase inhibitors and 1 mM DTT. The cell suspension was sonicated with a probe sonicator at 40% amplitude for 2 × 5 s. The resulting homogenate was centrifuged for 10 min at 12,000× g. […] TR-FRET was measured using an excitation wavelength of 340 nm and an emission wavelength of 665 nm with an iD5 plate reader (Molecular Devices, Berkshire, RG41 5TS UK). […]
smiles,measurement,setting,value
"Cc1cc(-n2c(=O)[nH]c(=O)n(C)c2=O)ccc1Oc1ccc(S(=O)(=O)C(F)(F)F)cc1 [ACD855, Toltrazuril-sulfone]",time with novel object vs familiar object after scopolamine,Wistar rats,spent significantly more time with the novel object
same,effect on Vmax(app) of TrkA,full-length TrkA-HA,significantly increase
